# Reference: publication PMC5344293, “A phase 1 dose-escalation and expansion study of binimetinib (MEK162), a potent and selective oral MEK1/2 inhibitor” (British Journal of Cancer, 2017)
# Entries after “also recorded” stand apart in the source; their conditions may differ. Where two headings read alike, the source gives them in different places.
# What was measured:
# ERK phosphorylation = system: ERK phosphorylation; parameters: method as in Lee et al, 2010; conditions: human cell lines; ref Lee et al, 2010; cited from earlier work
# [1] = system: C-reactive protein, interferon, IL-10, IL-12p70, IL-1β, IL-6, or IL-8; test: Serum cytokines other than TNF-α; type: in vivo, human
# NRAS-mutant melanoma = system: NRAS-mutant melanoma; parameters: method as in Ascierto et al, 2013; Van Herpen et al, 2015; conditions: patients with advanced NRAS-mutant melanoma; ref Ascierto et al, 2013; Van Herpen et al, 2015; cited from earlier work
# [2] = system: xenograft models derived from melanoma, colorectal cancer, NSCLC, fibrosarcoma, cholangiocarcinoma, and pancreatic cancer; parameters: method as in Lee et al, 2010; Woessner et al, 2010; conditions: non-clinical data, ref Lee et al, 2010, Woessner et al; cited from earlier work
# pMEK = test: Skin punch biopsy pMEK expression; type: in vivo, human; conditions: pre-dose and post-dose skin punch biopsies
# purified MEK enzyme = biological target: purified MEK enzyme; parameters: method as in Lee et al, 2010; Woessner et al, 2010; conditions: ref Lee et al, 2010, Woessner et al, read-out: half-maximal inhibitory concentration; cited from earlier work
# [3] = Plasma pharmacokinetics in patients; type: in vivo, human; conditions: for RAUC (accumulation ratio) / Cmax / AUC(0-t): geometric mean (% CV); for Cmax / AUC(0-t) / Tmax: human, plasma, oral
# Procedure: Blood for plasma binimetinib and metabolite concentration assessments was collected on cycle 1 day 1 (pre-dose and 30 min to 24 h post dose), cycle 1 day 15 (pre-dose and 30 min to 8 h post dose), and cycles 2 to 8 day 1 (pre-dose) from patients in the dose-escalation phase and from selected patients in the biliary cancer cohort of the expansion phase (intensive pharmacokinetic sampling). The remaining patients in the expansion phase underwent limited pharmacokinetic sampling on cycle 1 day 1 (pre-dose), cycle 1 day 8 (pre-dose), cycle 1 day 15 (pre-dose and 30 min to 8 h post dose), cycle 2 day 1 (pre-dose), cycle 3 day 1 (pre-dose and 30 min to 8 h post dose), and cycles 4–8 day 1 (pre-dose). Standard non-compartmental pharmacokinetic parameters were calculated on serial pharmacokinetic collection days (cycle 1 day 1 and cycle 1 day 15 for the dose-escalation phase; cycle 1 day 15 and cycle 3 day 1 for the expansion phase) for each patient and summarised by cohort. Dose proportionality, accumulation, and metabolite-to-parent ratio were assessed as appropriate.
smiles,measurement,setting,value
Cn1cnc2c(F)c(Nc3ccc(Br)cc3F)c(C(=O)NOCCO)cc21 [binimetinib],Inhibition of ERK phosphorylation,ERK phosphorylation,markedly inhibits
same,"Changes in C-reactive protein, interferon, IL-10, IL-12p70, IL-1β, IL-6, or IL-8",[1],no notable changes
same,Response rate,NRAS-mutant melanoma,15%
same,Anti-tumour activity in xenograft models,[2],broad anti-tumour activity
same,Change in skin pMEK relative to baseline,pMEK,no notable changes
same,IC50,purified MEK enzyme,12 nM
same,RAUC (accumulation ratio),"[3]; cycle 1 day 15, Total (N=26)",1.44 (32.8)
same,RAUC (accumulation ratio),"[3]; cycle 1 day 15, expansion Biliary 60 mg BID (n=7)",2.50 (NC)
same,Cmax,"[3]; 30 mg BID, cycle 1 day 1, dose-escalation 30 mg BID (n=4)",327 ng/mL
same,AUC(0-t),"[3]; 30 mg BID, cycle 1 day 1, dose-escalation 30 mg BID (n=4), intensive sampling, read-out: AUC0–8",1000 ng·h/mL
same,Tmax,"[3]; 30 mg BID, cycle 1 day 1, dose-escalation 30 mg BID (n=4), median (minimum–maximum), read-out: tmax",1.51 h
same,Tmax,"[3]; 30 mg BID, cycle 1 day 15, dose-escalation 30 mg BID (n=4), median (minimum–maximum), read-out: tmax",1.5 h
same,Cmax,"[3]; 30 mg, cycle 1 day 15, dose-escalation 30 mg BID (n=4)",417 ng/mL
same,Cmax,"[3]; 45 mg BID, cycle 1 day 1, dose-escalation 45 mg BID (n=4)",241 ng/mL
same,AUC(0-t),"[3]; 45 mg BID, cycle 1 day 1, dose-escalation 45 mg BID (n=4), intensive sampling, read-out: AUC0–8",964 ng·h/mL
same,Tmax,"[3]; 45 mg BID, cycle 1 day 1, dose-escalation 45 mg BID (n=4), median (minimum–maximum), read-out: tmax",2.53 h
same,Tmax,"[3]; 45 mg BID, cycle 1 day 15, dose-escalation 45 mg BID (n=4), median (minimum–maximum), read-out: tmax",2 h
same,Cmax,"[3]; 45 mg, cycle 1 day 15, dose-escalation 45 mg BID (n=4)",273 ng/mL
same,AUC(0-t),"[3]; 45 mg, cycle 1 day 15, dose-escalation 45 mg BID (n=4), read-out: AUC0-8",1490 ng·h/mL
same,Cmax,"[3]; 60 mg BID, cycle 1 day 1, dose-escalation 60 mg BID (n=7)",545 ng/mL
same,AUC(0-t),"[3]; 60 mg BID, cycle 1 day 1, dose-escalation 60 mg BID (n=7), intensive sampling, read-out: AUC0–8",1710 ng·h/mL
same,Tmax,"[3]; 60 mg BID, cycle 1 day 1, dose-escalation 60 mg BID (n=7), median (minimum–maximum), read-out: tmax",1 h
same,Tmax,"[3]; 60 mg BID, cycle 1 day 15, dose-escalation 60 mg BID (n=7), median (minimum–maximum), read-out: tmax",3 h
same,Cmax,"[3]; 60 mg, cycle 1 day 1, expansion Biliary 60 mg BID (n=7)",365 ng/mL
same,AUC(0-t),"[3]; 60 mg, cycle 1 day 1, expansion Biliary 60 mg BID (n=7), intensive sampling, read-out: AUC0–8",1090 ng·h/mL
same,Tmax,"[3]; 60 mg, cycle 1 day 1, expansion Biliary 60 mg BID (n=7), median (minimum–maximum), read-out: tmax",1.5 h
same,Cmax,"[3]; 60 mg, cycle 1 day 15, dose-escalation 60 mg BID (n=7)",512 ng/mL
same,AUC(0-t),"[3]; 60 mg, cycle 1 day 15, dose-escalation 60 mg BID (n=7), read-out: AUC0-8",1820 ng·h/mL
same,Cmax,"[3]; 60 mg, cycle 1 day 15, expansion Biliary 60 mg BID (n=7)",594 ng/mL
same,AUC(0-t),"[3]; 60 mg, cycle 1 day 15, expansion Biliary 60 mg BID (n=7), read-out: AUC0-8",3760 ng·h/mL
same,Tmax,"[3]; 60 mg, cycle 1 day 15, expansion Biliary 60 mg BID (n=7), median (minimum–maximum), read-out: tmax",1.5 h
same,Cmax,"[3]; 80 mg BID, cycle 1 day 1, dose-escalation 80 mg BID (n=4)",687 ng/mL
same,AUC(0-t),"[3]; 80 mg BID, cycle 1 day 1, dose-escalation 80 mg BID (n=4), intensive sampling, read-out: AUC0–8",2220 ng·h/mL
same,Tmax,"[3]; 80 mg BID, cycle 1 day 1, dose-escalation 80 mg BID (n=4), median (minimum–maximum), read-out: tmax",2.02 h
same,Tmax,"[3]; across all dose levels and both sampling schemes, read-out: tmax, median values",0.5 to 4 h
same,Tmax,"[3]; cycle 1 day 1, Total (N=26), median (minimum–maximum), read-out: tmax",1.5 h
same,Tmax,"[3]; cycle 1 day 15, Total (N=26), median (minimum–maximum), read-out: tmax",1.5 h
same,Pre-dose concentrations on cycle 1 day 15 versus 12 h concentrations on day 1,[3]; intensive pharmacokinetic sampling,up to threefold higher
same,Steady state,"[3]; limited sampling, 45 and 60 mg BID, no formal steady-state analysis",likely at steady state by cycle 1 day 15
same,Dose proportionality of exposure,"[3]; over the dose range tested, days 1 and 15 of cycle 1",Dose-proportional increases; also recorded: approximately dose proportional
